Results: PMC7986605 (Journal of Neuroscience Research, 2021)

What follows are molecules tested on primary hippocampal/cortical neuronal and glial cultures. Conditions: Sprague-Dawley, rat.
In the case of `CSc1ccc2c(c1)N(CCC1CCCCN1C)c1ccccc1S2` (stereo not drawn) [thioridazine], the “concentrations at which the compound was toxic/cytotoxic” value is reported as “above 1 µM”.

Same assay, conditions: α-synuclein oligomer 1.0 μM; 0.5–20 µM
In the case of `CC(NC(C)(C)C)C(=O)c1cccc(Cl)c1` (stereo not drawn) [bupropion], the “inhibition of α-synuclein oligomer-induced trafficking deficits (in words)” value (“inhibition” below) is reported as “weakly inhibited”.
With `NC(=O)N1c2ccccc2C=Cc2ccccc21` [carbamazepine] the “inhibition” value was “inhibited deficits at low concentrations”.
For `CCCCCCNC(=O)n1cc(F)c(=O)[nH]c1=O` [carmofur], the “inhibition” value was “weakly inhibited”.
With `CCCCC1=NC2(CCCC2)C(=O)N1Cc1ccc(-c2ccccc2-c2nnn[nH]2)cc1` [irbesartan] the “inhibition” value was “weakly inhibited”.
In the case of `CC[C@H](C)C(=O)O[C@H]1C[C@@H](C)C=C2C=C[C@H](C)[C@H](CC[C@@H]3C[C@@H](O)CC(=O)O3)[C@H]21` [lovastatin], the “inhibition” value is reported as “inhibited deficits at low concentrations”.
